{
  "source": "patent US8846873B2",
  "about": "“Antibodies directed to GPNMB and uses thereof” (Celldex Therapeutics, Inc., priority 2004, dated 2014)",
  "key": {"[1]": {"tested_on": "human T cells (CD3)", "assay": "Flow cytometry of CR011 engineered antibodies", "format": "binding", "conditions": "5 μg/sample/100 μl", "source_text": "(§1) (Jackson ImmunoResearch, West Grove, Pa.) Ten thousand events were collected and analyzed on a FACSCalibur instrument (Becton Dickinson, Mountain View, Calif.).\n(§2) To verify binding of the bi-scFv to human CD3 molecules, we used purified human T cells. […] Control anti-CD3 mAb bound to T cells, and control anti-GPNMB mAb bound to SK-Mel-5 tumor cells."}, "[2]": {"tested_on": "SK-Mel-5 cells", "assay": "Flow cytometry of CR011 engineered antibodies", "format": "binding, human", "conditions": "5 μg/sample/100 μl", "source_text": "as §1, §2"}, "[3]": {"target": "T1, purified recombinant GPNMB (Homo sapiens, UniProt Q14956)", "T1 construct": "made in house; host or cells: HEK 293", "T1 sequence (Q14956 23-492)": "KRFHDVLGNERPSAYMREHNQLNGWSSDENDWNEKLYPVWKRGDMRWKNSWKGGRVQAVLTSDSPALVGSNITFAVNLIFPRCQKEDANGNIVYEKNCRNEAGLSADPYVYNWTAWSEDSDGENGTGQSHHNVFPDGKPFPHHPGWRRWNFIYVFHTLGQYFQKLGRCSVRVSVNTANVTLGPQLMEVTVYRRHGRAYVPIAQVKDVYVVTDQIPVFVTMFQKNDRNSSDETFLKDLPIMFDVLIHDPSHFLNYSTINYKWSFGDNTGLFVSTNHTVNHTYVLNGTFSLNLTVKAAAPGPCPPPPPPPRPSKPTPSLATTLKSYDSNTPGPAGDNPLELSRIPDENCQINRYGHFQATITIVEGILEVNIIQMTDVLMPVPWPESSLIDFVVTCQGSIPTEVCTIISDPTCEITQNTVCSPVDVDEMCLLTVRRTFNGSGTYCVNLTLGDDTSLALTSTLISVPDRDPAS", "assay": "ELISA of CR011 engineered antibodies on recombinant GPNMB", "format": "binding", "conditions": "anti-FLAG-HRP detection", "procedure": "Plates were then blocked and washed. Various dilutions of the CR011 engineered antibodies were added into the wells. Plates were incubated for 1 h and washed. HRP-conjugated anti-FLAG M2 mAb (Sigma, St. Louis, Mo.) was added into the wells for 1 h, washed and the reaction developed with the TMB substrate reagent as described by the manufacturer (Pharmingen, San Jose, Calif.).\nPlates were coated with human GPNMB protein tagged with His and V5. […] Binding of the recombinant mAbs (both monomer and dimer) was detected using anti-FLAG-HRP conjugated mAb M2 (Sigma)."}, "[4]": {"tested_on": "SK-Mel-5 tumor cells", "assay": "T lymphocyte redirected cytotoxicity (PKH2 / propidium iodine flow cytometry)", "format": "cell-based, human", "conditions": "purified T cells cultured O/N with tumor cells", "procedure": "Tumor cells were labeled with PKH2 green fluorescent linker kit (Sigma) and washed. Purified T cells were cultured O/N with PKH2-labeled tumor cells in the presence or absence of purified bi-scFv. Death of GPNMB positive tumor cells was measured by propidium iodine (PI) incorporation."}},
  "note": "Entries after “also recorded” stand apart in the source; their conditions may differ.",
  "data": [
    {"substance": "CR011 scFv: CR011 single chain antibody VL-L4-VH Flag; SEQ ID NO: 355", "values": [
      {"measurement": "binding to T cells", "setting": "[1]", "value": "did not bind CD3 positive T cells"},
      {"measurement": "binding to SK-Mel-5 cells", "setting": "[2]", "value": "present at a low level"},
      {"measurement": "binding to recombinant GPNMB protein", "setting": "[3]", "value": "bound to the GPNMB target; also recorded: bind to the recombinant GPNMB protein"},
      {"measurement": "killing of SK-Mel-5 tumor cells by T lymphocytes", "setting": "[4]", "value": "did not increase killing"}
    ]}
  ]
}
